Source: patent US20220184222A1, “BICYCLE TOXIN CONJUGATES AND USES THEREOF” (BicycleTx Limited, priority 2019, published 2022)
“And” between values parts separate entries of the source, which are not always exact repeats. Equal values may be shown once.

System: PC-3 xenograft
Assay: In vivo efficacy in PC-3 xenograft, male Balb/c nude mice (Example 3)
Set-up: species or system Mus Musculus
Experimental: The objective of the research is to evaluate the in vivo anti-tumor efficacy of test articles in treatment of PC-3 xenograft in Balb/c nude mice.
The tumor cells were maintained in F-12K medium supplemented with 10% heat inactivated fetal bovine serum at 37° C. in an atmosphere of 5% CO2 in air. The tumor cells were routinely subcultured twice weekly. The cells growing in an exponential growth phase were harvested and counted for tumor inoculation.
Each mouse was inoculated subcutaneously at the right flank with PC-3 tumor cells (10×10^6) in 0.2 ml of PBS for tumor development. 52 animals were randomized when the average tumor volume reached 454 mm^3. The test article administration and the animal numbers in each group were shown in the experimental design table.
The major endpoint was to see if the tumor growth could be delayed or mice could be cured. Tumor volume was measured three times weekly in two dimensions using a caliper, and the volume was expressed in mm3 using the formula: V=0.5 a×b^2 where a and b are the long and short diameters of the tumor, respectively. The tumor size was then used for calculations of T/C value. The T/C value (in percent) is an indication of antitumor effectiveness; T and C are the mean volumes of the treated and control groups, respectively, on a given day.
TGI was calculated for each group using the formula: TGI (%)=[1−(Ti−T0)/(Vi−V0)]×100; Ti is the average tumor volume of a treatment group on a given day, T0 is the average tumor volume of the treatment group on the day of treatment start, Vi is the average tumor volume of the vehicle control group on the same day with Ti, and V0 is the average tumor volume of the vehicle group on the day of treatment start.
Tumor growth inhibition rate for test articles in the PC-3 xenograft model was calculated based on tumor volume measurements at day 20 after the start of the treatment.

[1] = 15 mpk i.v. qw (treatment suspended after the first dosing), day 20

For `CC(=O)O[C@@]12CO[C@@H]1C[C@H](O)[C@@]1(C)C(=O)[C@H](O)C3=C(C)[C@@H](OC(=O)[C@H](O)[C@@H](NC(=O)OC(C)(C)C)c4ccccc4)C[C@@](O)([C@@H](OC(=O)c4ccccc4)[C@H]21)C3(C)C` [Docetaxel, reference compound], the “tumor relapse after ceasing the treatment” value (15 mg/kg qw) was “obvious tumor relapse”, the “animal body weight loss” value (15 mg/kg qw, after the first dosing) was “severe animal body weight loss” and the Tumor volume (15 mpk i.v. qw (treatment suspended after the first dosing), day 0) was 453 mm^3. The Tumor volume (15 mpk i.v. qw (treatment suspended after the first dosing), day 2) was 584 mm^3, the Tumor volume (15 mpk i.v. qw (treatment suspended after the first dosing), day 4) was 632 mm^3 and the Tumor volume (15 mpk i.v. qw (treatment suspended after the first dosing), day 6) was 636 mm^3. It also gave a Tumor volume (15 mpk i.v. qw (treatment suspended after the first dosing), day 8) of 568 mm^3, a Tumor volume (15 mpk i.v. qw (treatment suspended after the first dosing), day 10) of 408 mm^3 and a Tumor volume (15 mpk i.v. qw (treatment suspended after the first dosing), day 13) of 374 mm^3. It also gave a Tumor volume (15 mpk i.v. qw (treatment suspended after the first dosing), day 15) of 388 mm^3, a Tumor volume (15 mpk i.v. qw (treatment suspended after the first dosing), day 17) of 361 mm^3 and a T/C [1] of 17.7%. The TGI [1] was 101.8% and the Tumor volume [1] was 419 mm^3 and 419 ± 31 mm^3.
